In the first assay the test system is HeLa cells. In words: Proliferation assay (HeLa, crystal violet). Type of assay: cell-based. The conditions noted are these: Homo sapiens, 96 h, 4 days incubation, crystal violet staining, read-out: Inhibition of HeLa cell proliferation. The method, then:
Human tumour cells were originally obtained from the American Type Culture Collection (ATCC), the Deutsche Sammlung von Mikroorganismen und Zellkulturen (DSMZ, German Collection of Microorganisms and Cell Cultures) or Epo GmbH, Berlin.
Adherently growing cells (HeLa, HeLa-MaTu-ADR, HT-144, Lovo, HT-29, NCI-H460, DU145, Caco2, B16F10) were plated out in a density of 1500-4000 cells/measurement point, depending on the rate of growth of the cell line, in a 96-well multititre plate in 200 μl of growth medium (DMEM/HAMS F12, 2 mM L-glutamine, 10% foetal calf serum). After 24 hours, the cells of one plate (zero plate) were dyed with crystal violet (see below), whereas the medium of the other plates was replaced with fresh culture medium (200 μl) to which the test substances were added in various concentrations (0 μM, and also in the range of 0.001-10 μM; the final concentration of the solvent dimethyl sulphoxide was 0.1 or 0.5%). The cells were incubated for 4 days in the presence of the test substances. Cell proliferation was determined by staining the cells with crystal violet: the cells were fixed at room temperature for 15 min by adding 20 μl/measurement point of an 11% strength glutaraldehyde solution. After washing the fixed cells three times with water, the plates were dried at room temperature. The cells were stained by adding 100 μl/measurement point of a 0.1% strength crystal violet solution (pH adjusted to pH 3 by adding acetic acid). After washing the cells three times with water, the plates were dried at room temperature. The dye was dissolved by adding 100 μl/measurement point of a 10% strength acetic acid solution. Absorbance was determined photometrically at a wavelength of 595 nm. The percentage change in cell growth was calculated by normalizing the measured values to the absorbance values of the zero plate (=0%) and the absorbance of the untreated (0 μM) cells (=100%). The IC50 values were determined by means of a four parameter fit.
Inhibition of proliferation of HeLa cells by compounds according to the present invention, determined as described above. All IC50 (inhibitory concentration at 50% of maximal effect) values are indicated in M, “n.t.” means that the compounds have not been tested in the respective assay.
full-length human ATR protein (ATR/ATRIP), sequence (Q13535 other isoform, or with tags, fused parts or gaps): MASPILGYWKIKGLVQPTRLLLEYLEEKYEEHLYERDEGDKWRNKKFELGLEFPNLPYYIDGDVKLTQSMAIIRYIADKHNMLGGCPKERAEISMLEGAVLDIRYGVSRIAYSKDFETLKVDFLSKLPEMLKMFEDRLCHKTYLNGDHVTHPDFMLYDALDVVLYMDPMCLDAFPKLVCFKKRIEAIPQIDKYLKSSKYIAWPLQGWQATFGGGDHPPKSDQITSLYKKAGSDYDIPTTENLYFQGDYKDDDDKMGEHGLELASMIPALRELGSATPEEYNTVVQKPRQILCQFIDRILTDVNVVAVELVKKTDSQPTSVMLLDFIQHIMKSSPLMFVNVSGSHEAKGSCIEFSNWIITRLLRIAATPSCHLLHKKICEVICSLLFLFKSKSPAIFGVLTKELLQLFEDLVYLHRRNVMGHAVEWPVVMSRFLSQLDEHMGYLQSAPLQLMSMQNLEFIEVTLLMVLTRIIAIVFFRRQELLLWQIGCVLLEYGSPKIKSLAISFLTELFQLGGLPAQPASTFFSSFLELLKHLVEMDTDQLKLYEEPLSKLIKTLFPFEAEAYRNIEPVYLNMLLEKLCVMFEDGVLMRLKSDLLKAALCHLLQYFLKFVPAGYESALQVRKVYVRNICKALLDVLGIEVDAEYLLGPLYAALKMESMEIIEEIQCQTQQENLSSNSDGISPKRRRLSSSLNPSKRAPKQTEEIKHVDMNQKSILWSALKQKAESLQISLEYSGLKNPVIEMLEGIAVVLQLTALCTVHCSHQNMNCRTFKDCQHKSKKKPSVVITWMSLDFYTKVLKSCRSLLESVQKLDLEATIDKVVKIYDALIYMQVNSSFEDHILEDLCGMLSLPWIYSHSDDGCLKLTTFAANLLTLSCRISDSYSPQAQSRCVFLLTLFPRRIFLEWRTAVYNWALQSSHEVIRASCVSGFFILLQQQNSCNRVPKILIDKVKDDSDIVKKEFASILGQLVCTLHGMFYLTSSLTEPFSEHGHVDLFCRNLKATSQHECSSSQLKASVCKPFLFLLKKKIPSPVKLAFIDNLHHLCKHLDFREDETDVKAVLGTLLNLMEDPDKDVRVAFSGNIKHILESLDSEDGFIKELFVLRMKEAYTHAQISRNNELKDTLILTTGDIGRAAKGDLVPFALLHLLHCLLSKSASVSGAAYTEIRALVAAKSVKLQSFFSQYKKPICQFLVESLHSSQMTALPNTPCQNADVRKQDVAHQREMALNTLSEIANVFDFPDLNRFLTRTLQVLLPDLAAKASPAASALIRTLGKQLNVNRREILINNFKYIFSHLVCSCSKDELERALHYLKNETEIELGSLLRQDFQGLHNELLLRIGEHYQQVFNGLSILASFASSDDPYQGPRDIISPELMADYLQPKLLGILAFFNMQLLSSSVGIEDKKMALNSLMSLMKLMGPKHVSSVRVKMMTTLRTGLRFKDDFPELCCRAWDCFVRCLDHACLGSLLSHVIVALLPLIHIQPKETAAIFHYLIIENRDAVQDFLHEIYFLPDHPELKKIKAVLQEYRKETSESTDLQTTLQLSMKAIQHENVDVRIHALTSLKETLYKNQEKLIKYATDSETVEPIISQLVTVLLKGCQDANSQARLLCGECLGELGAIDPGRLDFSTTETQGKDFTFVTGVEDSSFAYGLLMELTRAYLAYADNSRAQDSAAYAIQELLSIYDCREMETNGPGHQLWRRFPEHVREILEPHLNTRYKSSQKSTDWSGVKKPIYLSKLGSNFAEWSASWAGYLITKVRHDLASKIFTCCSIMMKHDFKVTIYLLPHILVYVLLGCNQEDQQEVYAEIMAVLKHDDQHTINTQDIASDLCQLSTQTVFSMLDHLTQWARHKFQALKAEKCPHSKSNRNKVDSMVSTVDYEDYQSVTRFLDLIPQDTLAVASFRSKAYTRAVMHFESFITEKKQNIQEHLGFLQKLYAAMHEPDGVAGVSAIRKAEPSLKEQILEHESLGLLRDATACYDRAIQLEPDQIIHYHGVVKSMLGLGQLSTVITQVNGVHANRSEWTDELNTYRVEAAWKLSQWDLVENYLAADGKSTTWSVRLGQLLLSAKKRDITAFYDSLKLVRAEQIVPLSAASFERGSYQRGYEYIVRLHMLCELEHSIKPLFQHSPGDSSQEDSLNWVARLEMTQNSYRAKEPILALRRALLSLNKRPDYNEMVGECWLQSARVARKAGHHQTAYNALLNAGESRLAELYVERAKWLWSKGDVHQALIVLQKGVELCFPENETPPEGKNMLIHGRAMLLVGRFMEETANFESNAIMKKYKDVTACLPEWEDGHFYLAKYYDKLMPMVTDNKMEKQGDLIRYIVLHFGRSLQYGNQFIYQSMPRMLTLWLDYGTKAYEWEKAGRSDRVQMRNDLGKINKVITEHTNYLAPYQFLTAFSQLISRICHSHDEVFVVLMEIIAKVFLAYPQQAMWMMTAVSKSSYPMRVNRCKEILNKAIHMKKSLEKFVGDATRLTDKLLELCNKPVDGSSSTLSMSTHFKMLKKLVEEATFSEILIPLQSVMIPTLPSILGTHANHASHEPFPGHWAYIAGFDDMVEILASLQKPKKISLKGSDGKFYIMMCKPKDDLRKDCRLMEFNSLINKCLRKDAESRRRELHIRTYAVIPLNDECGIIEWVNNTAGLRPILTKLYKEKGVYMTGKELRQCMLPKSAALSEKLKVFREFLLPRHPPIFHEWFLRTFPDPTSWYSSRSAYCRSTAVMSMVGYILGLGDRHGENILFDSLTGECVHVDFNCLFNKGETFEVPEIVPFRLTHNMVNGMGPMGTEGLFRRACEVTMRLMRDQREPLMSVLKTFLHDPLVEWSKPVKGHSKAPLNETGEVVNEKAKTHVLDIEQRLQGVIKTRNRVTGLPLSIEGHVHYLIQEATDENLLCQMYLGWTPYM
full-length human ATR protein (ATR/ATRIP), sequence (Q8WXE1 other isoform, or with tags, fused parts or gaps partner): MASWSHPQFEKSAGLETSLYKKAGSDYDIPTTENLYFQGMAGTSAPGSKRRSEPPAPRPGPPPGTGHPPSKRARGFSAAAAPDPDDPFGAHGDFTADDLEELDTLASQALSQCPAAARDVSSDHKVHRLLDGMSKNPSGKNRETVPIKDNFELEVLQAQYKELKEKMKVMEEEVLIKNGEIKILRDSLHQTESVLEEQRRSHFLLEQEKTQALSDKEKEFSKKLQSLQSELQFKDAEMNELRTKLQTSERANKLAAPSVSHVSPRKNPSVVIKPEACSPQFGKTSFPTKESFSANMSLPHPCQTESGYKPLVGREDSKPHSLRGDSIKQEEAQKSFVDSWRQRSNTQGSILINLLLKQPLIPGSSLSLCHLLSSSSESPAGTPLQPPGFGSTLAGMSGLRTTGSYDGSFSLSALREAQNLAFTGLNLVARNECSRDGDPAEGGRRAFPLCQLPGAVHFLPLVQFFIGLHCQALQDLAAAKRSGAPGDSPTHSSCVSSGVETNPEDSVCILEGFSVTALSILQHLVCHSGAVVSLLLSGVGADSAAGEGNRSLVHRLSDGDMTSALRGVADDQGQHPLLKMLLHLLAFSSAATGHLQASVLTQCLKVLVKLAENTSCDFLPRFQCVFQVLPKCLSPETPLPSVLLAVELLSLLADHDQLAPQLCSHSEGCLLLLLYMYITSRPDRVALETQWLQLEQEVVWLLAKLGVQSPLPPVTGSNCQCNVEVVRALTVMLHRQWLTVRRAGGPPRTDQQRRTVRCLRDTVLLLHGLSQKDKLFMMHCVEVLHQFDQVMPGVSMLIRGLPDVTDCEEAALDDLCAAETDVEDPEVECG
For `CCS(=O)(CC)=Nc1cc(N2CCOC[C@H]2C)nc2c(-c3ccn[nH]3)ncc(C)c12` [Example 9, 4-[diethyl(oxido)-λ^6-sulfanylidene]amino-5-methyl-2-[(3R)-3-methylmorpholin-4-yl]-8-(1H-pyrazol-5-yl)-1,7-naphthyridine], the IC50 was found to be 117 nM.

In the case of `CCOP(C)(=O)c1cc(N2CCOC[C@H]2C)nc2c(-c3ccn[nH]3)ncc(C)c12` (stereo partly drawn) [Example 17, ethyl methyl{5-methyl-2-[(3R)-3-methylmorpholin-4-yl]-8-(1H-pyrazol-5-yl)-1,7-naphthyridin-4-yl}phosphinate], the IC50 turned out to be 112 nM.

Another assay deals with full-length human ATR protein (ATR/ATRIP) (Homo sapiens (Human), UniProt Q13535). In words: Binding Assay ATR (TR-FRET, tracer A displacement). The note with it: displacement of fluorescent tracer A from GST-ATR/ATRIP. From the text:
To determine of binding activity of the test compounds, full-length human ATR protein was expressed and purified together with ATRIP as described above. Furthermore, a fluorescently labelled compound (tracer A as described above) was used as a tracer molecule. Detection of the binding event of the tracer was achieved by time-resolved fluorescence energy transfer (TR-FRET). We used an anti-GST-Terbium antibody (CisBio) that binds to the GST-tag at the N-terminus of ATR-kinase. Excitation of Terbium with 337 nm light results in emission of fluorescent light with 545 nm. In case a tetrameric complex has formed (antiGST-Tb+GST-ATR+Strp2-ATRIP+tracer), part of the energy will be transferred from the Terbium to the fluorophore that itself emits light of 570 nm. Displacement of the fluorescent tracer by a test compound leads to a reduction of the TR-FRET-signal.
For the assay 50 nl of a 100-fold concentrated solution of the test compound in DMSO was pipetted into a black low volume 384 well microtiter plate (MTP, Greiner Bio-One, Frickenhausen, Germany). To prepare the ATR-working solution, ATR/ATRIP stock solution was diluted in assay buffer [50 mM HEPES (pH 7.0), 10 mM MgCl2, 1 mM DTT, 0.01% (w/v) Igepal, 0.01% (w/v) BSA] to 4.2 nM protein concentration (concentration may vary from lot to lot of protein preparation). AntiGST-Tb antibody was diluted to 4.2 nM. The ATR-working solution was incubated for 30 min at 22° C. prior to dispensing to pre-form the complex of antiGST-Tb+GST-ATR+ATRIP. Then, 3 μl of the ATR-working solution were added to the test compound and the mixture was incubated for 10 min at 22° C. to allow pre-binding of the test compounds to ATR/ATRIP. Then, 2 μl of a 100 nM solution of tracer A in assay buffer were added to the ATR-working solution. The resulting mixture was incubated for 30 min at 22° C. The measurement of the TR-FRET signal was performed in a standard HTRF-compatible MTP reader instrument (e.g. BMG Pherastar) by recording the fluorescence emissions at 545 nm and 570 nm after excitation at 337-350 nm. The ratio between emission at 570 nm divided by emission at 545 nm was calculated to give the well ratio. The experimental data (well ratios) were normalised by the following way: positive control contained ATR-working solution plus tracer A solution (=0% inhibition), the negative control contained all components except GST-ATR/ATRIP (=100% inhibition). Usually the compounds were tested on the same MTP in 11 different concentrations in the range of 20 μM to 0.1 nM (20 μM, 5.9 μM, 1.7 μM, 0.51 μM, 0.15 μM, 44 nM, 13 nM, 3.8 nM, 1.1 nM, 0.33 nM and 0.1 nM). The dilution series were prepared separately before the assay on the level of the 100 fold concentrated solutions in DMSO by serial 1:3.4 dilutions in duplicate values for each concentration. IC50 values were calculated by a 4 parameter fit using standard software (GraphPad prism or equivalent).
(In general: In TR-FRET formats the signal depends on donor and acceptor labels being close together.)
`CCS(=O)(CC)=Nc1cc(N2CCOC[C@H]2C)nc2c(-c3ccn[nH]3)ncc(C)c12` [Example 9, 4-[diethyl(oxido)-λ^6-sulfanylidene]amino-5-methyl-2-[(3R)-3-methylmorpholin-4-yl]-8-(1H-pyrazol-5-yl)-1,7-naphthyridine] yielded an IC50 of 14.1 nM.

With `CCOP(C)(=O)c1cc(N2CCOC[C@H]2C)nc2c(-c3ccn[nH]3)ncc(C)c12` (stereo partly drawn) [Example 17, ethyl methyl{5-methyl-2-[(3R)-3-methylmorpholin-4-yl]-8-(1H-pyrazol-5-yl)-1,7-naphthyridin-4-yl}phosphinate], the IC50 came to 42.2 nM.

`Cc1cnc(-c2ccn[nH]2)c2nc(N3CCOC[C@H]3C)cc(-c3cccc4[nH]ccc34)c12` [Example 44, 4-(1H-indol-4-yl)-5-methyl-2-[(3R)-3-methylmorpholin-4-yl]-8-(1H-pyrazol-5-yl)-1,7-naphthyridine]: the IC50 was 35.5 nM.

Compound `COCc1cccc(-c2cc(N3CCOC[C@H]3C)nc3c(-c4ccn[nH]4)ncc(C)c23)c1` [Example 56, 4-[3-(methoxymethyl)phenyl]-5-methyl-2-[(3R)-3-methylmorpholin-4-yl]-8-(1H-pyrazol-5-yl)-1,7-naphthyridine] showed an IC50 of 62.4 nM.

On to `Cc1ccncc1-c1cc(N2CCOC[C@H]2C)nc2c(-c3ccn[nH]3)ncc(C)c12` [Example 61, 5-methyl-2-[(3R)-3-methylmorpholin-4-yl]-4-(4-methylpyridin-3-yl)-8-(1H-pyrazol-5-yl)-1,7-naphthyridine], for which the IC50 was found to be 8.6 nM.

`COc1ncccc1-c1cc(N2CCOC[C@H]2C)nc2c(-c3ccn[nH]3)ncc(C)c12` [Example 50, 4-(2-methoxypyridin-3-yl)-5-methyl-2-[(3R)-3-methylmorpholin-4-yl]-8-(1H-pyrazol-5-yl)-1,7-naphthyridine] came in with an IC50 of 72.2 nM.

The compound `COc1cccc(-c2cc(N3CCOC[C@H]3C)nc3c(-c4ccn[nH]4)ncc(C)c23)c1OC` [Example 37, 4-(2,3-dimethoxyphenyl)-5-methyl-2-[(3R)-3-methylmorpholin-4-yl]-8-(1H-pyrazol-5-yl)-1,7-naphthyridine] gave an IC50 of 13.8 nM.

With `Cc1cnc(-c2ccn[nH]2)c2nc(N3CCOC[C@H]3C)cc(-c3ccccc3S(C)(=O)=O)c12` [Example 31, 5-methyl-2-[(3R)-3-methylmorpholin-4-yl]-4-[2-(methylsulfonyl)phenyl]-8-(1H-pyrazol-5-yl)-1,7-naphthyridine], the IC50 is 47.2 nM.

Compound `Cc1cnc(-c2ccn[nH]2)c2nc(N3CCOC[C@H]3C)cc(-c3ccc4c(c3)OCCO4)c12` [Example 21, 4-(2,3-dihydro-1,4-benzodioxin-6-yl)-5-methyl-2-[(3R)-3-methylmorpholin-4-yl]-8-(1H-pyrazol-5-yl)-1,7-naphthyridine] registered an IC50 of 17.9 nM.

As for `Cc1cnc(-c2ccn[nH]2)c2nc(N3CCOC[C@H]3C)cc(C3=CCCC3)c12` [Example 33, 4-(cyclopent-1-en-1-yl)-5-methyl-2-[(3R)-3-methylmorpholin-4-yl]-8-(1H-pyrazol-5-yl)-1,7-naphthyridine], the IC50 amounted to 26.5 nM.

`Cc1cnc(-c2ccn[nH]2)c2nc(N3CCOC[C@H]3C)cc(-c3ccc(C(=O)NC4CC4)cc3)c12` [Example 63, N-cyclopropyl-4-{5-methyl-2-[(3R)-3-methylmorpholin-4-yl]-8-(1H-pyrazol-5-yl)-1,7-naphthyridin-4-yl}benzamide]: the IC50 amounted to 7.87 nM.

Compound `Cc1cnc(-c2ccn[nH]2)c2nc(N3CCOC[C@H]3C)cc(-c3cccc(N(C)C)c3)c12` [Example 40, N,N-dimethyl-3-{5-methyl-2-[(3R)-3-methylmorpholin-4-yl]-8-(1H-pyrazol-5-yl)-1,7-naphthyridin-4-yl}aniline] had an IC50 of 34.3 nM.

For the compound `Cc1cnc(-c2ccn[nH]2)c2nc(N3CCOC[C@H]3C)cc(-c3cncc4ccccc34)c12` [Example 58, 4-(isoquinolin-4-yl)-5-methyl-2-[(3R)-3-methylmorpholin-4-yl]-8-(1H-pyrazol-5-yl)-1,7-naphthyridine], the IC50 is 40 nM.

For `CSc1ccc(-c2cc(N3CCOC[C@H]3C)nc3c(-c4ccn[nH]4)ncc(C)c23)cc1` [Example 39, 5-methyl-2-[(3R)-3-methylmorpholin-4-yl]-4-[4-(methylsulfanyl)phenyl]-8-(1H-pyrazol-5-yl)-1,7-naphthyridine], the IC50 came out at 31.9 nM.

For the compound `Cc1cnc(-c2ccn[nH]2)c2nc(N3CCOC[C@H]3C)cc(-c3ccc(C#N)c(F)c3)c12` [Example 48, 2-fluoro-4-{5-methyl-2-[(3R)-3-methylmorpholin-4-yl]-8-(1H-pyrazol-5-yl)-1,7-naphthyridin-4-yl}benzonitrile], the IC50 came out at 23.2 nM.

Compound `Cc1cnc(-c2ccn[nH]2)c2nc(N3CCOC[C@H]3C)cc(-c3cccc(C(=O)N(C)C)c3)c12` [Example 55, N,N-dimethyl-3-{5-methyl-2-[(3R)-3-methylmorpholin-4-yl]-8-(1H-pyrazol-5-yl)-1,7-naphthyridin-4-yl}benzamide] came in with an IC50 of 40.6 nM.

As to `Cc1cnc(-c2ccn[nH]2)c2nc(N3CCOC[C@H]3C)cc(-c3cccc(S(C)(=O)=O)c3)c12` [Example 41, 5-methyl-2-[(3R)-3-methylmorpholin-4-yl]-4-[3-(methylsulfonyl)phenyl]-8-(1H-pyrazol-5-yl)-1,7-naphthyridine], the IC50 came out at 24.9 nM.

`COc1cncc(-c2cc(N3CCOC[C@H]3C)nc3c(-c4ccn[nH]4)ncc(C)c23)c1` [Example 59, 4-(5-methoxypyridin-3-yl)-5-methyl-2-[(3R)-3-methylmorpholin-4-yl]-8-(1H-pyrazol-5-yl)-1,7-naphthyridine]: the IC50 is 42.6 nM.

For the compound `Cc1cnc(-c2ccn[nH]2)c2nc(N3CCOC[C@H]3C)cc(-c3ccc(C(N)=O)cc3)c12` [Example 52, 4-{5-methyl-2-[(3R)-3-methylmorpholin-4-yl]-8-(1H-pyrazol-5-yl)-1,7-naphthyridin-4-yl}benzamide], the IC50 is 30.2 nM.

In the case of `Cc1cnc(-c2ccn[nH]2)c2nc(N3CCOC[C@H]3C)cc(-c3ccc4cc[nH]c4c3)c12` [Example 45, 4-(1H-indol-6-yl)-5-methyl-2-[(3R)-3-methylmorpholin-4-yl]-8-(1H-pyrazol-5-yl)-1,7-naphthyridine], the IC50 worked out at 94.7 nM.

The compound `Cc1cnc(-c2ccn[nH]2)c2nc(N3CCOC[C@H]3C)cc(-c3ccc(CO)s3)c12` [Example 47, (5-{5-methyl-2-[(3R)-3-methylmorpholin-4-yl]-8-(1H-pyrazol-5-yl)-1,7-naphthyridin-4-yl}thiophen-2-yl)methanol] gave an IC50 of 4.09 nM.

These data come from patent publication US10729680B2, “5-substituted 2-(morpholin-4-yl)-1,7-naphthyridines” (BAYER PHARMA AKTIENGESELLSCHAFT, priority 2016, dated 2020).
